Experimental data reported in patent US11077090B2, “Compounds and compositions and uses thereof” (Sunovion Pharmaceuticals Inc., priority 2016, dated 2021).

Assays:
compound-treated mice = assay: Neuropharmacological assay (SmartCube): behavioral activity signature and minimal effective dose; type: in vivo; conditions: for AD: ADHD (probability of activity signature) / AG: analgesic (probability of activity signature) / AX: anxiolytic (probability of activity signature) / CE: cognitive enhancer (probability of activity signature) / DP: anti-depressant (probability of activity signature) / MS: mood stabilizer (probability of activity signature) / PS: anti-psychotic (probability of activity signature) / SD: sedative hypnotic (probability of activity signature) / UN: uncharacterized CNS activity (probability of activity signature): i.p. 15 min before test, most efficacious dose(s)
Summary of the method: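 Mice dosed i.p. 15 min before test, compound in N-methyl-2-pyrrolidone/PEG/propylene glycol, 3 doses; video-captured behavior matched to reference-drug signatures, giving per-class probabilities at most efficacious dose. MED from doses typically 0.3–30 mpk, defined as lowest dose with ≥50% total activity.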

Adult male AJ mice = assay: Tail suspension test (TST); type: in vivo; set-up: key: −: No decrease in Mean Total Time Immobile; +: Significant decrease in Mean Total Time Immobile (P < 0.05 vs vehicle)
Description: The tail suspension test (TST) is a rodent screening test for potential (human) antidepressant drugs. It is based on the assumption that an animal will actively try to escape an aversive (stressful) stimulus. If escape is impossible, the animal will eventually stop trying (“give up”). In the TST, a mouse is suspended by the tail so that its body dangles in the air, head downward. Mice initially struggle to face upward and climb to a solid surface. When the animal stops struggling and hangs immobile it is considered to have “given up”. Shorter periods of immobility are characteristic of antidepressant-like activity. Accordingly, longer periods of immobility are considered indicative of a depressive-like state. It has been shown that treatment with an antidepressant drug will decrease the time the animal spends immobile. See generally L. Steru et al., Psychopharmacology (Berl). 1985; 85(3):367-70; B. Thierry et al., Psychopharmacology 1986; 90:284-85.
Adult male AJ mice from Jackson Laboratories received vehicle (sterile water) or test compound orally by gavage, or the positive control desipramine (20 mg/kg, i.p.), in 10 mL/kg injection volumes, 30 min before being subjected to the Tail Suspension Test. In this test, mice are placed in the Tail Suspension chambers (white polyvinylchloride cubicles measuring 33×33×31.75 cm Med Associates, Inc. St. Albans, Vt.) by a piece of transparent (Scotch®) tape attached to the tail, from about the mid-tail, with approximately 2 cm of tape past the end of the tail for 10 min during which the time spent immobile is measured. A reduction in total time immobile relative to the vehicle condition indicates an antidepressant drug-like response.

[1] = MED = dose having 50% or more total activity

N[C@@H]1COCc2ccccc21 (single isomer, unassigned) [Example 111]
minimal effective dose (compound-treated mice; Mus musculus, ip, MED = dose having 50% or more total activity, read-out: Potency: minimal effective dose (MED)): 3 to 10 mg/kg
AD: ADHD (probability of activity signature) (compound-treated mice): + (LOQ ≤ + <5%)
AG: analgesic (probability of activity signature) (compound-treated mice): ++ (5% ≤ ++ <25%)
AX: anxiolytic (probability of activity signature) (compound-treated mice): ++ (5% ≤ ++ <25%)
CE: cognitive enhancer (probability of activity signature) (compound-treated mice): ++ (5% ≤ ++ <25%)
DP: anti-depressant (probability of activity signature) (compound-treated mice): ++ (5% ≤ ++ <25%)
MS: mood stabilizer (probability of activity signature) (compound-treated mice): + (LOQ ≤ + <5%)
PS: anti-psychotic (probability of activity signature) (compound-treated mice): ++ (5% ≤ ++ <25%)
SD: sedative hypnotic (probability of activity signature) (compound-treated mice): + (LOQ ≤ + <5%)
UN: uncharacterized CNS activity (probability of activity signature) (compound-treated mice): +++ (25% ≤ +++ <50%)
Mean Total Time Immobile (Adult male AJ mice; 3 mg/kg PO): −
Mean Total Time Immobile (Adult male AJ mice; 10 mg/kg PO): −
Mean Total Time Immobile (Adult male AJ mice; 30 mg/kg PO): −

N[C@H]1COCc2ccc(F)cc21 (single isomer, unassigned) [Example 114]
Potency: minimal effective dose (MED) (compound-treated mice; [1]): C (>10 to ≤30 mpk)
AD: ADHD (probability of activity signature) (compound-treated mice): + (LOQ ≤ + <5%)
AG: analgesic (probability of activity signature) (compound-treated mice): ++ (5% ≤ ++ <25%)
AX: anxiolytic (probability of activity signature) (compound-treated mice): ++ (5% ≤ ++ <25%)
CE: cognitive enhancer (probability of activity signature) (compound-treated mice): ++ (5% ≤ ++ <25%)
DP: anti-depressant (probability of activity signature) (compound-treated mice): ++ (5% ≤ ++ <25%)
MS: mood stabilizer (probability of activity signature) (compound-treated mice): + (LOQ ≤ + <5%)
PS: anti-psychotic (probability of activity signature) (compound-treated mice): ++ (5% ≤ ++ <25%)
SD: sedative hypnotic (probability of activity signature) (compound-treated mice): + (LOQ ≤ + <5%)
UN: uncharacterized CNS activity (probability of activity signature) (compound-treated mice): +++ (25% ≤ +++ <50%)
Mean Total Time Immobile (Adult male AJ mice; 10 mg/kg PO): −
Mean Total Time Immobile (Adult male AJ mice; 30 mg/kg PO): +

N[C@@H]1COCc2ccc3ccccc3c21 (single isomer, unassigned) [Example 117]
Potency: minimal effective dose (MED) (compound-treated mice; [1]): B (>3 to 10 mpk)
AD: ADHD (probability of activity signature) (compound-treated mice): + (LOQ ≤ + <5%)
AG: analgesic (probability of activity signature) (compound-treated mice): ++ (5% ≤ ++ <25%)
AX: anxiolytic (probability of activity signature) (compound-treated mice): ++ (5% ≤ ++ <25%)
CE: cognitive enhancer (probability of activity signature) (compound-treated mice): ++ (5% ≤ ++ <25%)
DP: anti-depressant (probability of activity signature) (compound-treated mice): ++ (5% ≤ ++ <25%)
MS: mood stabilizer (probability of activity signature) (compound-treated mice): ++ (5% ≤ ++ <25%)
PS: anti-psychotic (probability of activity signature) (compound-treated mice): +++ (25% ≤ +++ <50%)
SD: sedative hypnotic (probability of activity signature) (compound-treated mice): + (LOQ ≤ + <5%)
UN: uncharacterized CNS activity (probability of activity signature) (compound-treated mice): + (LOQ ≤ + <5%)
Mean Total Time Immobile (Adult male AJ mice; 10 mg/kg PO): +
Mean Total Time Immobile (Adult male AJ mice; 30 mg/kg PO): −

N[C@H]1COCc2ccc3ccccc3c21 (single isomer, unassigned) [Example 118]
Potency: minimal effective dose (MED) (compound-treated mice; [1]): B (>3 to 10 mpk)
AD: ADHD (probability of activity signature) (compound-treated mice): + (LOQ ≤ + <5%)
AG: analgesic (probability of activity signature) (compound-treated mice): ++ (5% ≤ ++ <25%)
AX: anxiolytic (probability of activity signature) (compound-treated mice): ++ (5% ≤ ++ <25%)
CE: cognitive enhancer (probability of activity signature) (compound-treated mice): ++ (5% ≤ ++ <25%)
DP: anti-depressant (probability of activity signature) (compound-treated mice): +++ (25% ≤ +++ <50%)
MS: mood stabilizer (probability of activity signature) (compound-treated mice): + (LOQ ≤ + <5%)
PS: anti-psychotic (probability of activity signature) (compound-treated mice): ++ (5% ≤ ++ <25%)
SD: sedative hypnotic (probability of activity signature) (compound-treated mice): ++ (5% ≤ ++ <25%)
UN: uncharacterized CNS activity (probability of activity signature) (compound-treated mice): + (LOQ ≤ + <5%)
Mean Total Time Immobile (Adult male AJ mice; 10 mg/kg PO): −
Mean Total Time Immobile (Adult male AJ mice; 30 mg/kg PO): −

Cc1ccc2c(c1)[C@H](N)COC2 [Example 123]
Potency: minimal effective dose (MED) (compound-treated mice; [1]): A (≤3 mpk)
AD: ADHD (probability of activity signature) (compound-treated mice): + (LOQ ≤ + <5%)
AG: analgesic (probability of activity signature) (compound-treated mice): ++ (5% ≤ ++ <25%)
AX: anxiolytic (probability of activity signature) (compound-treated mice): ++ (5% ≤ ++ <25%)
CE: cognitive enhancer (probability of activity signature) (compound-treated mice): + (LOQ ≤ + <5%)
DP: anti-depressant (probability of activity signature) (compound-treated mice): ++ (5% ≤ ++ <25%)
MS: mood stabilizer (probability of activity signature) (compound-treated mice): + (LOQ ≤ + <5%)
PS: anti-psychotic (probability of activity signature) (compound-treated mice): ++ (5% ≤ ++ <25%)
SD: sedative hypnotic (probability of activity signature) (compound-treated mice): ++ (5% ≤ ++ <25%)
UN: uncharacterized CNS activity (probability of activity signature) (compound-treated mice): +++ (25% ≤ +++ <50%)
Mean Total Time Immobile (Adult male AJ mice; 10 mg/kg PO): −
Mean Total Time Immobile (Adult male AJ mice; 30 mg/kg PO): −

Cc1ccc2c(c1)[C@@H](N)COC2 [Example 124]
Potency: minimal effective dose (MED) (compound-treated mice; [1]): B (>3 to 10 mpk)
AD: ADHD (probability of activity signature) (compound-treated mice): + (LOQ ≤ + <5%)
AG: analgesic (probability of activity signature) (compound-treated mice): ++ (5% ≤ ++ <25%)
AX: anxiolytic (probability of activity signature) (compound-treated mice): +++ (25% ≤ +++ <50%)
CE: cognitive enhancer (probability of activity signature) (compound-treated mice): ++ (5% ≤ ++ <25%)
DP: anti-depressant (probability of activity signature) (compound-treated mice): ++ (5% ≤ ++ <25%)
MS: mood stabilizer (probability of activity signature) (compound-treated mice): + (LOQ ≤ + <5%)
PS: anti-psychotic (probability of activity signature) (compound-treated mice): ++ (5% ≤ ++ <25%)
SD: sedative hypnotic (probability of activity signature) (compound-treated mice): ++ (5% ≤ ++ <25%)
UN: uncharacterized CNS activity (probability of activity signature) (compound-treated mice): +++ (25% ≤ +++ <50%)
Mean Total Time Immobile (Adult male AJ mice; 10 mg/kg PO): −
Mean Total Time Immobile (Adult male AJ mice; 30 mg/kg PO): −
